Measurements from paper PMC5582255, “Partial Purification and Characterization of the Recombinant Benzaldehyde Dehydrogenase from Rhodococcus ruber UKMP-5M” (Iranian Journal of Biotechnology, 2017).

Tested on: T1, BZDH (benzaldehyde dehydrogenase, xylC)
T1 construct: xylC ORF of 792 bp, 264 aa, ~27 kDa, homologous to the C-terminal half of other aldehyde dehydrogenases; DEAE ion exchange; forward primer […]; (encodes MSPSPVPPR), reverse primer […]; (C-terminus ...DVPGYPF)
Experiment: NADH formation at […] nm, Lineweaver-Burk
Assay type: biochemical, Rhodococcus ruber
Details: co-substrate NAD (standard assay 5 mM, 50 mM glycine-NaOH); 25 °C; benzaldehyde 0.005-4 mM; pH of kinetic run not stated

SMILES: O=Cc1ccccc1 [benzaldehyde]
- Km: 4.2 mM
